Measured values: patent publication US20170275270A1, “BENZYL SUBSTITUTED INDAZOLES” (Bayer Pharma Aktiengesellschaft, priority 2014, published 2017)
Values joined by “and” are separate entries in the source; they are usually repeats but may differ in a detail not shown here. Equal entries are not always repeated.

Target: T1, catalytic domain of human Bub1 (amino acids 704-1085) (Homo sapiens, UniProt O43683)
T1 construct: catalytic domain of human Bub1 (amino acids 704-1085); His6 (N); made in house; host or cells: Hi5 insect cells
T1 sequence (O43683 704-1085): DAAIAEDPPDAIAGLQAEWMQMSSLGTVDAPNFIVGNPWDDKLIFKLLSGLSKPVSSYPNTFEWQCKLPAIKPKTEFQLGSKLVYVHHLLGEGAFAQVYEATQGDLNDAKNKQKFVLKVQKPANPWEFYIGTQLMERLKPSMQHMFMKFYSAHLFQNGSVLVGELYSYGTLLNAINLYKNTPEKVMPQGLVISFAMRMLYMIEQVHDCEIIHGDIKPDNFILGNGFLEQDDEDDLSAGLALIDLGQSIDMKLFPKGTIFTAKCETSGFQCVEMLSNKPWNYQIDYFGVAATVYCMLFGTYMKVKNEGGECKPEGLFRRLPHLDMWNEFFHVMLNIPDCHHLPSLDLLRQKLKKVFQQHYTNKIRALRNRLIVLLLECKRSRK
Assay: Bub1 kinase assay (TR-FRET)
Format: biochemical
Conditions: 10 μM ATP, read-out: Biological Assay 1: Bub1 kinase assay median IC50
Method: To this end, 100-fold concentrated compound solutions (in DMSO) were previously prepared by serial dilution (1:3.4) of 2 mM stocks in a clear low volume 384-well source microtiter plate (Greiner Bio-One, Frickenhausen, Germany), from which 50 nL of compounds were transferred into a black low volume test microtiter plate from the same supplier. […] The resulting mixture (5 μL final volume) was incubated at 22° C. during 60 min., and the reaction was stopped by the addition of 5 μL of an aqueous EDTA-solution (50 mM EDTA, in 100 mM HEPES pH 7.5 and 0.2% (w/v) bovine serum albumin) which also contained the TR-FRET detection reagents (0.2 μM streptavidin-XL665 [Cisbio Bioassays, Codolet, France] and 1 nM anti-phosho-Serine antibody [Merck Millipore, cat. #35-001] and 0.4 nM LANCE EU-W1024 labeled anti-mouse IgG antibody [Perkin-Elmer, product no. AD0077, alternatively a Terbium-cryptate-labeled anti-mouse IgG antibody from Cisbio Bioassays can be used]). The stopped reaction mixture was further incubated 1 h at 22° C. in order to allow the formation of complexes between peptides and detection reagents. Subsequently, the amount of product was evaluated by measurement of the resonance energy transfer from the Eu-chelate-antibody complex recognizing the Phosphoserine residue to the streptavidin-XL665 bound to the biotin moiety of the peptide. […] IC50 values were calculated by fitting the normalized inhibition data to a 4-parameter logistic equation (Minimum, Maximum, IC50, Hill; Y=Max+(Min−Max)/(1+(X/IC50) Hill)).

IC50 [nM]	Compound
15	COCCOc1cc(F)c(Cn2nc(-c3nc(Nc4ccncc4OC)cc(C(C)C)n3)c3ccccc32)c(F)c1 [Example 2-12-73, 2-{1-[2,6-difluoro-4-(2-methoxyethoxy)benzyl]-1H-indazol-3-yl}-6-isopropyl-N-(3-methoxypyridin-4-yl)pyrimidin-4-amine]
180	COCCOc1cc(F)c(Cn2nc(-c3nc(Nc4cc(C)ncc4C)cc(C(C)C)n3)c3ccccc32)c(F)c1 [Example 2-12-74, 2-{1-[2,6-difluoro-4-(2-methoxyethoxy)benzyl]-1H-indazol-3-yl}-N-(2,5-dimethylpyridin-4-yl)-6-isopropylpyrimidin-4-amine]
6.2	COCCOc1cc(F)c(Cn2nc(-c3nc(C)c(C)c(Nc4ccncc4OC)n3)c3ccccc32)c(F)c1 [Example 2-12-76, 2-{1-[2,6-difluoro-4-(2-methoxyethoxy)benzyl]-1H-indazol-3-yl}-N-(3-methoxypyridin-4-yl)-5,6-dimethylpyrimidin-4-amine]
6.7	COCCOc1cc(F)c(Cn2nc(-c3nc(C)cc(Nc4ccncc4OC)n3)c3ccccc32)c(F)c1 [Example 2-12-77, 2-{1-[2,6-difluoro-4-(2-methoxyethoxy)benzyl]-1H-indazol-3-yl}-N-(3-methoxypyridin-4-yl)-6-methylpyrimidin-4-amine]
12	COCCOc1cc(F)c(Cn2nc(-c3nc(C)cc(Nc4ccncc4OC(F)(F)F)n3)c3ccccc32)c(F)c1 [Example 2-12-78, 2-{1-[2,6-difluoro-4-(2-methoxyethoxy)benzyl]-1H-indazol-3-yl}-6-methyl-N-[3-(trifluoromethoxy)pyr-idin-4-yl]pyrimidin-4-amine]
51	CCOc1cc(F)c(Cn2nc(-c3nc(C)cc(Nc4ccncc4O)n3)c3ccccc32)c(F)c1 [Example 2-12-80, 4-({2-[1-(4-ethoxy-2,6-difluorobenzyl)-1H-indazol-3-yl]-6-methylpyrimidin-4-yl}amino)pyridin-3-ol]

Same assay, conditions: Biological Assay 1: Bub1 kinase assay median IC50, 10 μM ATP

IC50	Compound
130 nM	COCCOc1cc(F)c(Cn2nc(-c3nc4c(c(Nc5cc(C)ncc5C)n3)CCC4)c3ccccc32)c(F)c1 [Example 2-12-57, 2-{1-[2,6-difluoro-4-(2-methoxyethoxy)benzyl]-1H-indazol-3-yl}-N-(2,5-dimethylpyridin-4-yl)-6,7-dihydro-5H-cyclopenta[d]pyrimidin-4-amine]
17 nM	COCCOc1cc(F)c(Cn2nc(-c3nc4c(c(Nc5cc(C)ncc5F)n3)CCC4)c3ccccc32)c(F)c1 [Example 2-12-58, 2-{1-[2,6-difluoro-4-(2-methoxyethoxy)benzyl]-1H-indazol-3-yl}-N-(5-fluoro-2-methylpyridin-4-yl)-6,7-dihydro-5H-cyclopenta[d]pyrimidin-4-amine]
9.9 nM	COCCOc1cc(F)c(Cn2nc(-c3nc4c(c(Nc5ccncc5OC)n3)CCCCC4)c3ccccc32)c(F)c1 [Example 2-12-70, 2-{1-[2,6-difluoro-4-(2-methoxyethoxy)benzyl]-1H-indazol-3-yl}-N-(3-methoxypyridin-4-yl)-6,7,8,9-tetrahydro-5H-cyclohepta[d]pyrimidin-4-amine]
75 nM	COCCOc1cc(F)c(Cn2nc(-c3nc(C)cc(Nc4ccnc(C)n4)n3)c3ccccc32)c(F)c1 [Example 2-12-71, 2-{1-[2,6-difluoro-4-(2-methoxyethoxy)benzyl]-1H-indazol-3-yl}-6-methyl-N-(2-methylpyrimidin-4-yl)pyrimidin-4-amine]
670 nM	COCCOc1cc(F)c(Cn2nc(-c3nc(Nc4ccnc(C)n4)cc(C(C)C)n3)c3ccccc32)c(F)c1 [Example 2-12-72, 2-{1-[2,6-difluoro-4-(2-methoxyethoxy)benzyl]-1H-indazol-3-yl}-6-isopropyl-N-(2-methylpyrimidin-4-yl)pyrimidin-4-amine]
180 nM	COCCOc1cc(F)c(Cn2nc(-c3nc(C)c(F)c(Nc4ccnc(C)n4)n3)c3ccccc32)c(F)c1 [Example 2-12-75, 2-{1-[2,6-difluoro-4-(2-methoxyethoxy)benzyl]-1H-indazol-3-yl}-5-fluoro-6-methyl-N-(2-methylpyrimidin-4-yl)pyrimidin-4-amine]
2300 nM	CCOc1cc(F)c(Cn2nc(-c3nc(Nc4ccnc(C)n4)cc(-c4sc(C)nc4C)n3)c3ccccc32)c(F)c1 [Example 2-12-84, 6-(2,4-dimethyl-1,3-thiazol-5-yl)-2-[1-(4-ethoxy-2,6-difluorobenzyl)-1H-indazol-3-yl]-N-(2-methylpyrimidin-4-yl)pyrimidin-4-amine]
6000 nM	CCOc1cc(F)c(Cn2nc(-c3nc(Nc4ccncn4)cc(-c4sc(C)nc4C)n3)c3ccccc32)c(F)c1 [Example 2-12-85, 6-(2,4-dimethyl-1,3-thiazol-5-yl)-2-[1-(4-ethoxy-2,6-difluorobenzyl)-1H-indazol-3-yl]-N-(pyrimidin-4-yl)pyrimidin-4-amine]
1100 nM	CCOc1cc(F)c(Cn2nc(-c3nc(Nc4ccnc(C)n4)cc(C4CCOCC4)n3)c3ccccc32)c(F)c1 [Example 2-12-89, 2-[1-(4-ethoxy-2,6-difluorobenzyl)-1H-indazol-3-yl]-N-(2-methylpyrimidin-4-yl)-6-(tetrahydro-2H-pyran-4-yl)pyrimidin-4-amine]
11 nM	CCOc1cc(F)c(Cn2nc(-c3nc(Nc4ccnc(NC(C)=O)c4)cc(C4CCOCC4)n3)c3ccccc32)c(F)c1 [Example 2-12-90, N-[4-({2-[1-(4-ethoxy-2,6-difluorobenzyl)-1H-indazol-3-yl]-6-(tetrahydro-2H-pyran-4-yl)pyrimidin-4-yl}amino)pyridin-2-yl]acetamide]
> 20000 nM and 9200 nM	CCOc1cc(F)c(Cn2nc(-c3nc(Nc4ccnc(C)n4)cc(-c4nccs4)n3)c3ccccc32)c(F)c1 [Example 2-12-96, 2-[1-(4-ethoxy-2,6-difluorobenzyl)-1H-indazol-3-yl]-N-(2-methylpyrimidin-4-yl)-6-(1,3-thiazol-2-yl)pyrimidin-4-amine]
26 nM	COCCOc1cc(F)c(Cn2nc(-c3nc4c(c(Nc5ccncc5OC)n3)COCC4)c3ccccc32)c(F)c1 [Example 2-12-99, 2-{1-[2,6-difluoro-4-(2-methoxyethoxy)benzyl]-1H-indazol-3-yl}-N-(3-methoxypyridin-4-yl)-7,8-dihydro-5H-pyrano[4,3-d]pyrimidin-4-amin]
99 nM	COCCOc1cc(F)c(Cn2nc(-c3nc4c(c(Nc5ccnc(C)n5)n3)COCC4)c3ccccc32)c(F)c1 [Example 2-12-100, 2-{1-[2,6-difluoro-4-(2-methoxyethoxy)benzyl]-1H-indazol-3-yl}-N-(2-methylpyrimidin-4-yl)-7,8-dihydro-5H-pyrano[4,3-d]pyrimidin-4-amine]
9.7 nM	CCOc1cc(F)c(Cn2nc(-c3nc4c(c(Nc5ccncc5Cl)n3)CCC4)c3ccccc32)c(F)c1 [Example 2-14-7, N-(3-chloropyridin-4-yl)-2-[1-(4-ethoxy-2,6-difluorobenzyl)-1H-indazol-3-yl]-6,7-dihydro-5H-cyclopenta[d]pyrimidin-4-amine]
8.2 nM	CCOc1cc(F)c(Cn2nc(-c3nc4c(c(Nc5ccncc5C5CC5)n3)CCC4)c3ccccc32)c(F)c1 [Example 2-14-8, N-(3-cyclopropylpyridin-4-yl)-2-[1-(4-ethoxy-2,6-difluorobenzyl)-1H-indazol-3-yl]-6,7-dihydro-5H-cyclopenta[d]pyrimidin-4-amine]
7 nM	CCOc1cc(F)c(Cn2nc(-c3nc4c(c(Nc5ccncc5)n3)COC4)c3ccccc32)c(F)c1 [Example 2-14-10, 2-[1-(4-ethoxy-2,6-difluorobenzyl)-1H-indazol-3-yl]-N-(pyridin-4-yl)-5,7-dihydrofuro[3,4-d]pyrimidin-4-amine]
81 nM	COCCOc1cc(F)c(Cn2nc(-c3nc4c(c(Nc5ccnc(C)n5)n3)CCC(C)(C)C4)c3ccccc32)c(F)c1 [Example 2-15-9, 2-{1-[2,6-difluoro-4-(2-methoxyethoxy)benzyl]-1H-indazol-3-yl}-7,7-dimethyl-N-(2-methylpyrimidin-4-yl)-5,6,7,8-tetrahydroquinazolin-4-amine]
1400 nM	COCCOc1cc(F)c(Cn2nc(-c3nc4c(c(Nc5ccncc5Cl)n3)CCC(C)(C)C4)c3ccccc32)c(F)c1 [Example 2-15-10, N-(3-chloropyridin-4-yl)-2-{1-[2,6-difluoro-4-(2-methoxyethoxy)benzyl]-1H-indazol-3-yl}-7,7-dimethyl-5,6,7,8-tetrahydroquinazolin-4-amine]
1700 nM	COCCOc1cc(F)c(Cn2nc(-c3nc4c(c(Nc5ccncc5OC)n3)CCC(C)(C)C4)c3ccccc32)c(F)c1 [Example 2-15-11, 2-{1-[2,6-difluoro-4-(2-methoxyethoxy)benzyl]-1H-indazol-3-yl}-N-(3-methoxypyridin-4-yl)-7,7-dimethyl-5,6,7,8-tetrahydroquinazolin-4-amine]
21 nM	COCCOc1cc(F)c(Cn2nc(-c3nc4c(c(Nc5ccnc(NC(C)=O)c5)n3)CCC(C)(C)C4)c3ccccc32)c(F)c1 [Example 2-15-12, N-{4-[(2-{1-[2,6-difluoro-4-(2-methoxyethoxy)benzyl]-1H-indazol-3-yl}-7,7-dimethyl-5,6,7,8-tetrahydroquinazolin-4-yl)amino]pyridin-2-yl}acetamide]
